Measurements as given in US20210315887A1, “METHODS OF ADMINISTERING THERAPY” (GALAPAGOS NV, priority 2018, published 2021).
“Also recorded” adds a separate entry of the source. Read-outs that look alike come from different tables or passages of the source.

Assay: Phase I open-label drug-drug interaction study: single-dose plasma pharmacokinetics of compound 1 before and after repeat doses of rifampicin
Assay type: in vivo, human
Details: for Mean maximal compound 1 plasma concentration: from mean concentration-time profile; for Cmax / AUC(0-t): po, 600 mg; for Cmax: healthy male subjects; for concentration at 24 h: read-out: C24h
Experimental: A phase I, open-label, non-randomized, drug-drug interaction study in healthy male subjects is done to evaluate the impact of repeat doses of rifampicin, on the single-dose pharmacokinetics (PK) of compound 1 as well as to evaluate the safety and tolerability of a single dose of compound 1 administered before or after oral doses of rifampicin.
Eighteen healthy male subjects received a single oral dose of 600 mg compound 1 on Day 1. From Days 2 to 11, 600 mg rifampicin was administered once daily (q.d.) to all subjects for 10 consecutive days. On Day 12, subjects received a single oral dose of 600 mg of compound 1 (see Table 1). A follow-up visit is conducted between days 15 and 18.
On days 1, 2, 12, 13 (i.e. 1, 2, 3, 4, 5, 6, 7, 8, 12 and 24 hours post compound 1 administration on day 1 and day 12) and at the follow-up visit, blood samples for PK assessment of compound 1 are taken. Blood samples of 2 mL for the determination of compound 1 levels in plasma are collected by venipuncture (or indwelling catheter) in the arm, into vacuum tubes containing lithium heparin and are immediately chilled (ice bath).
Within 30 min after blood collection, the plasma is separated by centrifugation at 4° C. for 10 min at circa 1,500 g and transferred into 2 polypropylene tubes with at least 400 μL of plasma in the first aliquot and the remaining volume in the second aliquot. After appropriate labeling, the plasma samples are stored in the clinical center at −20° C.±10° C. within 2 h following centrifugation and are protected from direct sunlight.
Plasma concentrations were measured using validated liquid chromatography with tandem mass (LC/MS-MS) spectrometry methods with a limit of quantification of 1.00 ng/mL for compound 1, 20.0 mg/mL for cholesterol and 5.00 ng/mL for 4-β-hydroxycholesterol. Non-compartmental PK calculations are performed using Phoenix WinNonlin® (version 6.4).
The following parameters are determined for compound 1 from individual concentration-time profiles in plasma: • Cmax: maximum observed plasma concentration • tmax: time of occurrence of Cmax • AUC0-t: area under the plasma concentration-time curve from time zero till the time corresponding with the last observed quantifiable concentration, calculated by the linear up-logarithmic down trapezoidal rule • AUC0-24h: area under the plasma concentration-time curve from time zero till 24 h post-dose, calculated by the linear up-logarithmic down trapezoidal rule • C24h: plasma concentration observed at 24 h post-dose
Plasma concentrations and PK parameters of compound 1 are listed by day (Day 1: compound 1 before multiple rifampin doses; Day 12: compound 1 after multiple rifampin doses) for each subject. Descriptive statistics are calculated by day for the plasma concentration and PK parameters. Mean (±SE) concentration-time profiles are generated by day.
A mixed-effects model with day as fixed effect and subject as random effect is performed on the following natural log (ln)-transformed PK parameters of compound 1: Cmax, C24h, AUC0-t, and AUC0-24h. […] The 90% confidence interval (CI) of the point estimate is calculated using the mean square error of the analysis of variance.
As tmax is a discrete variable dependent on selected blood sampling times, day effect was assessed using a non-parametric test (Wilcoxon's signed-rank test).

[1] = point estimate of least-squares geometric means ratio, Day 12 relative to Day 1
[2] = rifampin 600 mg q.d. for 10 days, Day 12 vs Day 1

- Time post-dose at which mean maximal concentration is attained (Day 1, single 600 mg oral dose): 2 h
- Mean maximal compound 1 plasma concentration (Day 1, single 600 mg oral dose): 7,870 ng/mL
- Time post-dose at which mean maximal concentration is attained (Day 12, after multiple rifampin doses): 2 h
- Mean maximal compound 1 plasma concentration (Day 12, single 600 mg oral dose after rifampin 600 mg q.d. 10 days): 1,180 ng/mL
- Impact of multiple rifampin intake on compound 1 clearance (Day 12 compared with Day 1): no impact
- Impact of multiple rifampin intake on apparent rate of elimination of compound 1 (Day 12 compared with Day 1, visual inspection of profiles): no impact
- Decrease of AUC0-24h by multiple rifampin intake (Day 12 vs Day 1): 89.2%
- Decrease of Cmax by multiple rifampin intake (Day 12 vs Day 1): 83.2%
- Bioavailability of compound 1 after multiple rifampin intake (as shown by point estimates, Day 12 vs Day 1): markedly lower
- Elimination of compound 1 (shape of log-linear mean concentration-time profile) (before and after multiple rifampin intake): biphasic
- Cmax (male, human, plasma, single oral 600 mg compound 1, after multiple rifampin doses 600 mg q.d. 10 days (Day 12), N = 18, arithmetic mean): 1440 ng/mL
- Cmax (male, human, plasma, single oral 600 mg compound 1, before multiple rifampin doses (Day 1), N = 18, arithmetic mean): 8660 ng/mL
- AUC(0-t) (male, human, plasma, single oral 600 mg, after multiple rifampin doses (Day 12), N = 17, arithmetic mean, read-out: AUC0-24h): 3750 ng·h/mL
- AUC(0-t) (male, human, plasma, single oral 600 mg, after multiple rifampin doses (Day 12), N = 18, arithmetic mean, read-out: AUC0-t): 3570 ng·h/mL
- AUC(0-t) (male, human, plasma, single oral 600 mg, before multiple rifampin doses (Day 1), N = 18, arithmetic mean, read-out: AUC0-24h): 36300 ng·h/mL
- AUC(0-t) (male, human, plasma, single oral 600 mg, before multiple rifampin doses (Day 1), N = 18, arithmetic mean, read-out: AUC0-t): 36300 ng·h/mL
- concentration at 24 h (male, human, plasma, single oral 600 mg, after multiple rifampin doses (Day 12), N = 18, arithmetic mean): 1.69 ng/mL
- concentration at 24 h (male, human, plasma, single oral 600 mg, before multiple rifampin doses (Day 1), N = 18, arithmetic mean): 83.4 ng/mL
- Tmax (male, human, plasma, single oral 600 mg, before multiple rifampin doses (Day 1), N = 18, median): 2 h
- AUC0-24h Comparison (PE %) [1]: 10.75%
- AUC0-t Comparison (PE %) [1]: 10.24%
- C24h Comparison (PE %) [1]: 2.48%
- Cmax Comparison (PE %) [1]: 16.78%
- Decrease of AUC0-24h by multiple rifampin intake [2]: 9.3 fold
- Decrease of Cmax by multiple rifampin intake [2]: 6.0 fold
SMILES: CCc1nc2c(C)cc(N3CCN(CC(=O)N4CC(O)C4)CC3)cn2c1N(C)c1nc(-c2ccc(F)cc2)c(C#N)s1 [Compound 1]
- Day effect (rifampin) on tmax (statistical analysis Day 12 vs Day 1): no significant effect; also recorded: no significant impact
